From patent US20250009889A1, “CYCLIC PEROXIDES AS PRODRUGS FOR SELECTIVE DELIVERY OF AGENTS” (The Regents of the University of California, priority 2021, published 2025)
Entries after “also recorded” stand apart in the source; their conditions may differ.

What was measured:
[1] = tested on: P. falciparum parasites (W2 strain); test: Growth inhibition of cultured P. falciparum parasites (antiplasmodial activity); type: cell-based; conditions: Plasmodium falciparum, Erythrocyte, in human red blood cells, 48 h incubation, flow cytometry, read-out: IC50 against cultured P. falciparum parasites
Protocol: Plasmodium falciparum EC50 Determinations
The growth inhibition assay for P. falciparum was conducted as described previously with minor modifications. Briefly, P. falciparum strain W2 synchronized ring-stage parasites were cultured in human red blood cells in 96-well flat-bottom culture plates at 37° C., adjusted to 1% parasitemia and 2% hematocrit under an atmosphere of 3% O2, 5% CO2, and […] in a final volume of 0.1 mL per well in RPMI-1640 media supplemented with 0.5% Albumax, 2 mM L-glutamine, and […] in the presence of various concentrations of inhibitors. […] Following 48 h of incubation, the cells were fixed by adding 0.1 mL of 2% formaldehyde in phosphate buffered saline, pH=7.4 (PBS). Parasite growth was evaluated by flow cytometry on a FACsort (Becton Dickinson) equipped with AMS-1 loader (Cytek Development) after staining with 1 nM of the DNA dye YOYO-1 (Molecular Probes) in 100 mM NH4Cl, 0.1% Triton x-100 in 0.8% NaCl. Parasitemias were determined from dot plots (forward scatter vs fluorescence) using CELLQUEST software (Becton Dickinson). EC50 values for growth inhibition were determined from plots of percentage control parasitemia over inhibitor concentration using GraphPad Prism software.

[2] = Fe(II)-fragmentation assay followed by UPLC/MS; type: physicochemical; conditions: ferrous-ammonium sulfate with pH 7.4 Tris buffer; for fragmentation of the trioxolane / conversion to the common cyclohexanone intermediate A on exposure to Fe^2+: UPLC/MS
Protocol: Fe(II)-Fragmentation Assay To 1 mL of trioxolane analog in DMSO (1 mM) at 37° C. was added 1 mL of Tris containing 50 mM ferrous ammonium sulfate. At various time points, 40 μL aliquots of the resulting mixture were removed and spun down in a mini centrifuge for 20 seconds, 20 μL of the supernatant was removed and 5 μL was injected into the UPLC. The concentration of the fragments was determined by UV from UPLC (290 nm). The resulting UV curves were plotted using GraphPad Prism software.

| IC50 [1] | alternate bicyclo[2.2.1]heptan-2-one product detected (regioselectivity of peroxide scission) [2] | Compound | rate of conversion to intermediate A relative to comparator 6a [2] | time point by which the conjugate is fully consumed ([2]; 37° C.) | fragmentation of the trioxolane / conversion to the common cyclohexanone intermediate A on exposure to Fe^2+ ([2]; 37° C.) |
| --- | --- | --- | --- | --- | --- |
| 24 nM |  | O=C(O[C@@H]1CCC[C@]2(C1)OOC1(O2)C2CCCC1CCC2)N1CCCCC1C(O)c1cc(C(F)(F)F)nc2c(C(F)(F)F)cccc12 (stereo partly drawn) [6h] |  |  |  |
| 74 nM | No detectable quantity | O=C(O[C@@H]1CCC[C@]2(C1)OOC1(CC3CCC1C3)O2)N1CCCCC1C(O)c1cc(C(F)(F)F)nc2c(C(F)(F)F)cccc12 (stereo partly drawn) [6f] | moderately faster | ≤ 11 min | rapid; also recorded: within minutes to clean conversion |
| 24 nM |  | O=C(O[C@@H]1CCC[C@]2(C1)OOC1(CC3CCC1CC3)O2)N1CCCCC1C(O)c1cc(C(F)(F)F)nc2c(C(F)(F)F)cccc12 (stereo partly drawn) [6g] |  |  |  |
| 17 nM |  | O=C(O[C@@H]1CCC[C@]2(C1)OOC1(O2)C2CC3CC(C2)CC1C3)N1CCCCC1C(O)c1cc(C(F)(F)F)nc2c(C(F)(F)F)cccc12 (stereo partly drawn) [6a, reference compound] |  |  | rapid; also recorded: within minutes to clean conversion |
